The text below walks through data of patent US20110201818A1, “POLO-LIKE KINASE INHIBITORS” (TAKEDA PHARMACEUTICAL COMPANY LIMITED, priority 2007, published 2011).

Each structure is given as a SMILES string. pIC50: −log10 of the molar value. Some results are limits rather than exact numbers.

The target in one assay is T1, human PLK1 (Homo sapiens, UniProt P53350).
T1 construct: FLAG (DYKDDDDK) (N); made in house; host or cells: Sf21 insect cells, recombinant baculovirus (pFASTBAC1, Bac-to-Bac)
T1 sequence (P53350 with tags, fused parts or gaps): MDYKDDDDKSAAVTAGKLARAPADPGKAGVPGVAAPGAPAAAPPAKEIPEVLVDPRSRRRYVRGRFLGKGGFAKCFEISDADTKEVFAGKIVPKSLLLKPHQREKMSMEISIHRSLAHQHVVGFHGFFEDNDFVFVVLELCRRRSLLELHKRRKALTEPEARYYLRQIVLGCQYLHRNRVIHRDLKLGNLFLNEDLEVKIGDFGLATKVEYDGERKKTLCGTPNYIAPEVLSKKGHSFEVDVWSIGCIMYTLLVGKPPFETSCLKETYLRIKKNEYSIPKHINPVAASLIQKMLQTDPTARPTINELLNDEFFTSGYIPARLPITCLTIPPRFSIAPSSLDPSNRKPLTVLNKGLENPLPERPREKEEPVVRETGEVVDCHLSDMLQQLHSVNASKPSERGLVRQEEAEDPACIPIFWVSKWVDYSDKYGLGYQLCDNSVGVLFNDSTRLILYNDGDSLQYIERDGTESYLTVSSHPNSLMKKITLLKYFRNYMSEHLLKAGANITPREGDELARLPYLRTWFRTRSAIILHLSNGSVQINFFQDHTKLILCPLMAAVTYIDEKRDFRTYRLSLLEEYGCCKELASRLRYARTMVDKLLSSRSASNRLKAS
Description: PLK1 in vitro enzymatic activity assay (phosphorylation of alpha casein by recombinant PLK1). Type of assay: biochemical.
Settings: not given
The method, then:
PCR was performed using the vector as a template. […] After XbaI and XhoI digestion of the PCR product, the fragment was subcloned into pFASTBAC1 (Invitrogen, USA). Recombinant baculoviruses were prepared according to the procedure of the Bac-to-Bac baculovirus expression system (Invitrogen, USA). Sf21 cells were purchased from Invitrogen and grown in Sf-900 II SFM medium containing 10% fetal bovine serum, 50 μg/mL gentamicin and 0.1% pluronic F-68 (Invitrogen, USA) at 28° C. For preparation of PLK1 enzyme, Sf21 cells were infected with recombinant baculoviruses and cultured at 28° C. for 72 h.
The inhibition of PLK1 by the compounds was determined with the following assay that measures the phosphorylation of alpha casein by recombinant PLK1. Kinase reactions were performed at room temperature for 40 min in the kinase reaction buffer (25 mmol/L HEPES, pH 7.5, 10 mmol/L magnesium acetate, 1 mmol/L dithiothreitol) containing 50 ng PLK1 enzyme, 0.1 μCi [γ-^32P]ATP, 500 nmol/L ATP and 3 μg alpha casein (MP Biomedicals Inc., USA) in a final volume of 50 μL. The incubation was terminated by the addition of 10% trichloroacetic acid (Wako, Japan). Phosphorylated proteins were filtrated in GF/C filter plates (Packard, USA) with a Cell harvester (Packard, USA) and washed out free [γ-^32P]-ATP with 250 mmol/L phosphoric acid. Then, the plates were air dried for 60 min at 45° C., followed by the addition of 20 μL of MicroScint-O (Packard, USA). The radioactivity was counted by a Top-count scintillation counter (Packard, USA).
As to `CCN1CCN(NC(=O)c2ccc(Nc3ncc4c(n3)N(C3CCCCC3)CC(F)(F)C(=O)N4C)c(OC)c2)CC1` [Compound 78, 4-(9-cyclohexyl-7,7-difluoro-5-methyl-6-oxo-6,7,8,9-tetrahydro-5H-pyrimido[4,5-b][1,4]diazepin-2-ylamino)-N-(4-ethylpiperazin-1-yl)-3-methoxybenzamide], the pIC50 was not below 8.70.

The same assay, now with this note: recombinant FLAG-tagged PLK1, alpha casein substrate, 500 nmol/L ATP, 40 min at room temperature; read-out: pIC50 (PLK1) (converted).
Turning to `COc1cc(C(=O)N2CCN(C)CC2)ccc1Nc1ncc2c(n1)N(C1CCCCC1)CC(F)(F)C(=O)N2C` [Compound 57, 9-cyclohexyl-7,7-difluoro-2-(2-methoxy-4-(4-methylpiperazine-1-carbonyl)-phenylamino)-5-methyl-8,9-dihydro-5H-pyrimido[4,5-b][1,4]diazepin-6(7H)-one], the IC50 was more than 2 nM.

Regarding `COc1cc(C(N)=O)ccc1Nc1ncc2c(n1)N(C1CCCCC1)CC(F)(F)C(=O)N2C` [Compound 58, 4-(9-cyclohexyl-7,7-difluoro-5-methyl-6-oxo-6,7,8,9-tetrahydro-5H-pyrimido[4,5-b][1,4]diazepin-2-ylamino)-3-methoxybenzamide], the IC50 was not above 2 nM.

Take `CNC(=O)c1ccc(Nc2ncc3c(n2)N(C2CCCCC2)CC(F)(F)C(=O)N3C)c(OC)c1` [Compound 60, 4-(9-cyclohexyl-7,7-difluoro-5-methyl-6-oxo-6,7,8,9-tetrahydro-5H-pyrimido[4,5-b][1,4]diazepin-2-ylamino)-3-methoxy-N-methylbenzamide]: the IC50 was not above 2 nM.

As for `COc1cc(C(=O)NN(C)C)ccc1Nc1ncc2c(n1)N(C1CCCCC1)CC(F)(F)C(=O)N2C` [Compound 61, 4-(9-cyclohexyl-7,7-difluoro-5-methyl-6-oxo-6,7,8,9-tetrahydro-5H-pyrimido[4,5-b][1,4]diazepin-2-ylamino)-3-methoxy-N′,N′-dimethylbenzohydrazide], the IC50 was not above 2 nM.

Consider `COc1cc(C(=O)NC[C@@H](C)O)ccc1Nc1ncc2c(n1)N(C1CCCCC1)CC(F)(F)C(=O)N2C` [Compound 62, (R)-4-(9-cyclohexyl-7,7-difluoro-5-methyl-6-oxo-6,7,8,9-tetrahydro-5H-pyrimido[4,5-b][1,4]diazepin-2-ylamino)-N-(2-hydroxypropyl)-3-methoxybenzamide], for which the IC50 was not above 2 nM.

`COc1cc(C(=O)NC[C@H](C)O)ccc1Nc1ncc2c(n1)N(C1CCCCC1)CC(F)(F)C(=O)N2C` [Compound 63, (S)-4-(9-cyclohexyl-7,7-difluoro-5-methyl-6-oxo-6,7,8,9-tetrahydro-5H-pyrimido[4,5-b][1,4]diazepin-2-ylamino)-N-(2-hydroxypropyl)-3-methoxybenzamide]: the IC50 is not above 2 nM.

Take `COc1cc(C(=O)NN2CCCCC2)ccc1Nc1ncc2c(n1)N(C1CCCCC1)CC(F)(F)C(=O)N2C` [Compound 64, 4-(9-cyclohexyl-7,7-difluoro-5-methyl-6-oxo-6,7,8,9-tetrahydro-5H-pyrimido[4,5-b][1,4]diazepin-2-ylamino)-3-methoxy-N-(piperidin-1-yl)benzamide]: the IC50 was not above 2 nM.

Consider `COc1cc(C(=O)NN2CCOCC2)ccc1Nc1ncc2c(n1)N(C1CCCCC1)CC(F)(F)C(=O)N2C` [Compound 65, 4-(9-cyclohexyl-7,7-difluoro-5-methyl-6-oxo-6,7,8,9-tetrahydro-5H-pyrimido[4,5-b][1,4]diazepin-2-ylamino)-3-methoxy-N-morpholinobenzamide], for which the IC50 was not above 2 nM.

For the compound `COc1cc(C(=O)NC2CCOCC2)ccc1Nc1ncc2c(n1)N(C1CCCCC1)CC(F)(F)C(=O)N2C` [Compound 66, 4-(9-cyclohexyl-7,7-difluoro-5-methyl-6-oxo-6,7,8,9-tetrahydro-5H-pyrimido[4,5-b][1,4]diazepin-2-ylamino)-3-methoxy-N-(tetrahydro-2H-pyran-4-yl)benzamide], the IC50 was not above 2 nM.

Take `COc1cc(C(=O)NN2CCCC2)ccc1Nc1ncc2c(n1)N(C1CCCCC1)CC(F)(F)C(=O)N2C` [Compound 67, 4-(9-cyclohexyl-7,7-difluoro-5-methyl-6-oxo-6,7,8,9-tetrahydro-5H-pyrimido[4,5-b][1,4]diazepin-2-ylamino)-3-methoxy-N-(pyrrolidin-1-yl)benzamide]: the IC50 is not above 2 nM.

For `COc1cc(C(=O)NC2CN(C(C)=O)C2)ccc1Nc1ncc2c(n1)N(C1CCCCC1)CC(F)(F)C(=O)N2C` [Compound 69, N-(1-acetylazetidin-3-yl)-4-(9-cyclohexyl-7,7-difluoro-5-methyl-6-oxo-6,7,8,9-tetrahydro-5H-pyrimido[4,5-b][1,4]diazepin-2-ylamino)-3-methoxybenzamide], the IC50 is not above 2 nM.

As to `COc1cc(C(=O)NC2CCNCC2)ccc1Nc1ncc2c(n1)N(C1CCCCC1)CC(F)(F)C(=O)N2C` [Compound 70, 4-(9-cyclohexyl-7,7-difluoro-5-methyl-6-oxo-6,7,8,9-tetrahydro-5H-pyrimido[4,5-b][1,4]diazepin-2-ylamino)-3-methoxy-N-(piperidin-4-yl)benzamide], the IC50 was not above 2 nM.

With `COc1cc(C(=O)N[C@H]2CCCN(C)C2)ccc1Nc1ncc2c(n1)N(C1CCCCC1)CC(F)(F)C(=O)N2C` [Compound 74, (S)-4-(9-cyclohexyl-7,7-difluoro-5-methyl-6-oxo-6,7,8,9-tetrahydro-5H-pyrimido[4,5-b][1,4]diazepin-2-ylamino)-3-methoxy-N-(1-methylpiperidin-3-yl)benzamide], the IC50 is not above 2 nM.

For the compound `COc1cc(C(=O)N[C@@H]2CCCN(C)C2)ccc1Nc1ncc2c(n1)N(C1CCCCC1)CC(F)(F)C(=O)N2C` [Compound 75, (R)-4-(9-cyclohexyl-7,7-difluoro-5-methyl-6-oxo-6,7,8,9-tetrahydro-5H-pyrimido[4,5-b][1,4]diazepin-2-ylamino)-3-methoxy-N-(1-methylpiperidin-3-yl)benzamide], the IC50 was not above 2 nM.

Take `COc1cc(C(=O)NC2CC2)ccc1Nc1ncc2c(n1)N(C1CCCCC1)CC(F)(F)C(=O)N2C` [Compound 76, 4-(9-cyclohexyl-7,7-difluoro-5-methyl-6-oxo-6,7,8,9-tetrahydro-5H-pyrimido[4,5-b][1,4]diazepin-2-ylamino)-N-cyclopropyl-3-methoxybenzamide]: the IC50 is not above 2 nM.

Turning to `COc1cc(C(=O)NN2CCNCC2)ccc1Nc1ncc2c(n1)N(C1CCCCC1)CC(F)(F)C(=O)N2C` [Compound 77, 4-(9-cyclohexyl-7,7-difluoro-5-methyl-6-oxo-6,7,8,9-tetrahydro-5H-pyrimido[4,5-b][1,4]diazepin-2-ylamino)-3-methoxy-N-(piperazin-1-yl)benzamide], the IC50 was not above 2 nM.

With `COc1cc(C(=O)NN2CCN(C(C)C)CC2)ccc1Nc1ncc2c(n1)N(C1CCCCC1)CC(F)(F)C(=O)N2C` [Compound 79, 4-(9-cyclohexyl-7,7-difluoro-5-methyl-6-oxo-6,7,8,9-tetrahydro-5H-pyrimido[4,5-b][1,4]diazepin-2-ylamino)-N-(4-isopropylpiperazin-1-yl)-3-methoxybenzamide], the IC50 is not above 2 nM.

With `COc1cc(C(=O)NN2CCN(CC3CC3)CC2)ccc1Nc1ncc2c(n1)N(C1CCCCC1)CC(F)(F)C(=O)N2C` [Compound 80, 4-(9-cyclohexyl-7,7-difluoro-5-methyl-6-oxo-6,7,8,9-tetrahydro-5H-pyrimido[4,5-b][1,4]diazepin-2-ylamino)-N-(4-(cyclopropylmethyl)piperazin-1-yl)-3-methoxybenzamidemethoxybenzamide], the IC50 was not above 2 nM.
